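Five concentrations, 48 hours, 96-well plates. GI50 marks 50% less growth. At the TGI there is no net growth.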
What was measured:
Assay in all cases: DTP human tumour cell line panel, 48 h
SNB-75 CNS = system: SNB-75 CNS
786-0 renal = system: 786-0 renal
HCT-15 colon = system: HCT-15 colon
OVCAR-5 ovarian = system: OVCAR-5 ovarian
COLO 205 colon = system: COLO 205 colon
K-562 leukemia = system: K-562 leukemia
NCI-H23 lung = system: NCI-H23 lung
OVCAR-8 ovarian = system: OVCAR-8 ovarian
IGROV1 ovarian = system: IGROV1 ovarian
RXF 393 renal = system: RXF 393 renal

`COc1cccc(NC(=O)CC(=O)N2N=C(N(CCC#N)c3ccc(Cl)cc3)CC2c2ccccc2)c1` (stereo not given) showed a TGI (SNB-75 CNS) of over 100 µM, a TGI (786-0 renal) of over 100 µM and a TGI (HCT-15 colon) of over 100 µM. For the same compound, the TGI (OVCAR-5 ovarian) was over 100 µM, the TGI (COLO 205 colon) was over 100 µM and the TGI (K-562 leukemia) was over 100 µM. For the same compound, the TGI (NCI-H23 lung) was over 100 µM, the TGI (OVCAR-8 ovarian) was over 100 µM and the TGI (IGROV1 ovarian) was over 100 µM. It also gave a TGI (RXF 393 renal) of over 100 µM.
Work on `COC(=O)[C@H](Cc1cn(C)cn1)NC(=O)[C@H](Cc1c[nH]c2ccccc12)NC(=O)Nc1cc(C(F)(F)F)cc(C(F)(F)F)c1` yielded a GI50 (SNB-75 CNS) of over 10 µM, a TGI (SNB-75 CNS) of over 10 µM and a GI50 (786-0 renal) of over 10 µM. It also gave a TGI (786-0 renal) of over 10 µM, a GI50 (HCT-15 colon) of over 10 µM and a TGI (HCT-15 colon) of over 10 µM. The GI50 (OVCAR-5 ovarian) was over 10 µM, the TGI (OVCAR-5 ovarian) was over 10 µM and the GI50 (COLO 205 colon) was over 10 µM. The TGI (COLO 205 colon) was over 10 µM, the GI50 (K-562 leukemia) was over 10 µM and the TGI (K-562 leukemia) was over 10 µM. It also gave a GI50 (NCI-H23 lung) of over 10 µM, a TGI (NCI-H23 lung) of over 10 µM and a GI50 (OVCAR-8 ovarian) of over 10 µM. For the same compound, the TGI (OVCAR-8 ovarian) was over 10 µM, the GI50 (IGROV1 ovarian) was over 10 µM and the TGI (IGROV1 ovarian) was over 10 µM. It also gave a GI50 (RXF 393 renal) of over 10 µM and a TGI (RXF 393 renal) of over 10 µM.
In the case of `COc1cc(Cl)cc(-c2nn(C(=O)NCCN3CCOCC3)cc2-c2ccncc2)c1`, the GI50 (SNB-75 CNS) is reported as 1.73 µM, the TGI (SNB-75 CNS) is reported as 8.78 µM and the GI50 (786-0 renal) is reported as 6.88 µM. The TGI (786-0 renal) was 37.9 µM, the GI50 (HCT-15 colon) was 3.79 µM and the TGI (HCT-15 colon) was over 100 µM. For the same compound, the GI50 (OVCAR-5 ovarian) was 37.8 µM, the TGI (OVCAR-5 ovarian) was over 100 µM and the GI50 (COLO 205 colon) was 3.16 µM. For the same compound, the TGI (COLO 205 colon) was 11.2 µM, the GI50 (K-562 leukemia) was 4.12 µM and the TGI (K-562 leukemia) was over 100 µM. It also gave a GI50 (NCI-H23 lung) of 11.5 µM, a TGI (NCI-H23 lung) of over 100 µM and a GI50 (OVCAR-8 ovarian) of 7.61 µM. It also gave a TGI (OVCAR-8 ovarian) of over 100 µM, a GI50 (IGROV1 ovarian) of 4.98 µM and a TGI (IGROV1 ovarian) of over 100 µM. It also gave a GI50 (RXF 393 renal) of 2.67 µM and a TGI (RXF 393 renal) of 19.9 µM.
In the case of `CC(=O)NNc1nc(C)c(C(=O)NNC(=O)C(=O)Nc2ccccc2C#N)s1`, the TGI (SNB-75 CNS) is reported as over 100 µM, the TGI (786-0 renal) is reported as over 100 µM and the TGI (HCT-15 colon) is reported as over 100 µM. The TGI (OVCAR-5 ovarian) was over 100 µM, the TGI (COLO 205 colon) was over 100 µM and the TGI (K-562 leukemia) was over 100 µM. For the same compound, the TGI (NCI-H23 lung) was over 100 µM, the TGI (OVCAR-8 ovarian) was over 100 µM and the TGI (IGROV1 ovarian) was over 100 µM. For the same compound, the TGI (RXF 393 renal) was over 100 µM.
For `Cc1ccc(S(=O)(=O)N2CCSCCSCCSCCSCC2)cc1`, the TGI (SNB-75 CNS) was 29.8 µM, the TGI (786-0 renal) was 40.2 µM and the TGI (HCT-15 colon) was over 100 µM. It also gave a TGI (OVCAR-5 ovarian) of over 100 µM, a TGI (COLO 205 colon) of over 100 µM and a TGI (K-562 leukemia) of over 100 µM. The TGI (NCI-H23 lung) was over 92.6 µM, the TGI (OVCAR-8 ovarian) was 48.4 µM and the TGI (IGROV1 ovarian) was over 100 µM. It also gave a TGI (RXF 393 renal) of over 45.9 µM.
`O=C1c2ccccc2-c2c1c1ccccc1c(=O)n2CCCNCCCNCCCn1c2c(c3ccccc3c1=O)C(=O)c1ccccc1-2` was tested, and the GI50 (SNB-75 CNS) was 1.13 µM, the TGI (SNB-75 CNS) was 3.05 µM and the GI50 (786-0 renal) was under 0.0362 µM. It also gave a TGI (786-0 renal) of 0.172 µM, a GI50 (HCT-15 colon) of 0.0605 µM and a TGI (HCT-15 colon) of 0.196 µM. For the same compound, the GI50 (OVCAR-5 ovarian) was 0.0763 µM, the TGI (OVCAR-5 ovarian) was 0.731 µM and the GI50 (COLO 205 colon) was 0.572 µM. The TGI (COLO 205 colon) was 8.1 µM, the GI50 (K-562 leukemia) was 0.0225 µM and the TGI (K-562 leukemia) was 1.22 µM. The GI50 (NCI-H23 lung) was 0.0383 µM, the TGI (NCI-H23 lung) was 1.64 µM and the GI50 (OVCAR-8 ovarian) was under 0.01 µM. It also gave a TGI (OVCAR-8 ovarian) of 0.201 µM, a GI50 (IGROV1 ovarian) of under 0.01 µM and a TGI (IGROV1 ovarian) of under 0.0416 µM. It also gave a GI50 (RXF 393 renal) of 0.0569 µM and a TGI (RXF 393 renal) of 1.11 µM.
Compound `O=C(Cn1ccc(=O)[nH]c1=O)Nc1ccc(C(=O)O)c(O)c1` has a TGI (SNB-75 CNS) of over 100 µM, a TGI (786-0 renal) of over 100 µM and a TGI (HCT-15 colon) of over 100 µM. For the same compound, the TGI (OVCAR-5 ovarian) was over 100 µM, the TGI (COLO 205 colon) was over 100 µM and the TGI (K-562 leukemia) was over 100 µM. The TGI (NCI-H23 lung) was over 100 µM, the TGI (OVCAR-8 ovarian) was over 100 µM and the TGI (IGROV1 ovarian) was over 100 µM. The TGI (RXF 393 renal) was over 100 µM.
Compound `Cc1ccc(/C=C2\CN(C(=O)OC(C)(C)C)C/C(=C\c3ccc(C)cc3)C2=O)cc1` has a GI50 (SNB-75 CNS) of 0.693 µM, a TGI (SNB-75 CNS) of over 100 µM and a GI50 (786-0 renal) of 0.445 µM. The TGI (786-0 renal) was over 100 µM, the GI50 (HCT-15 colon) was 0.054 µM and the TGI (HCT-15 colon) was over 100 µM. It also gave a GI50 (OVCAR-5 ovarian) of 0.391 µM, a TGI (OVCAR-5 ovarian) of over 100 µM and a GI50 (COLO 205 colon) of 0.597 µM. The TGI (COLO 205 colon) was 4.08 µM, the GI50 (K-562 leukemia) was 0.332 µM and the TGI (K-562 leukemia) was over 100 µM. The GI50 (NCI-H23 lung) was 0.516 µM, the TGI (NCI-H23 lung) was over 100 µM and the GI50 (OVCAR-8 ovarian) was 0.918 µM. For the same compound, the TGI (OVCAR-8 ovarian) was over 100 µM, the GI50 (IGROV1 ovarian) was 0.367 µM and the TGI (IGROV1 ovarian) was over 100 µM. It also gave a GI50 (RXF 393 renal) of 0.0625 µM and a TGI (RXF 393 renal) of 4.36 µM.
Work on `COc1cc2c(cc1OC)C(N(C)C)C(c1ccccc1)=C2Cl` (stereo not given) yielded a TGI (SNB-75 CNS) of 48.7 µM, a TGI (786-0 renal) of 73.9 µM and a TGI (HCT-15 colon) of 34.1 µM. For the same compound, the TGI (OVCAR-5 ovarian) was over 100 µM, the TGI (COLO 205 colon) was 32.6 µM and the TGI (K-562 leukemia) was over 100 µM. For the same compound, the TGI (NCI-H23 lung) was 32.4 µM, the TGI (OVCAR-8 ovarian) was 47.8 µM and the TGI (IGROV1 ovarian) was 47.5 µM. For the same compound, the TGI (RXF 393 renal) was 29.3 µM.
Work on `COc1ccc(C(=O)/C=C/c2ccc(/C=C/c3cc(OC)c(OC)c(OC)c3)cc2)cc1` yielded a GI50 (SNB-75 CNS) of 5.5 µM, a TGI (SNB-75 CNS) of 47.7 µM and a GI50 (786-0 renal) of 10.4 µM. It also gave a TGI (786-0 renal) of 71.1 µM, a GI50 (HCT-15 colon) of 2.42 µM and a TGI (HCT-15 colon) of over 100 µM. For the same compound, the GI50 (OVCAR-5 ovarian) was 34.1 µM, the TGI (OVCAR-5 ovarian) was over 100 µM and the GI50 (COLO 205 colon) was 13.7 µM. The TGI (COLO 205 colon) was over 100 µM, the GI50 (K-562 leukemia) was 3.03 µM and the TGI (K-562 leukemia) was over 100 µM. The GI50 (NCI-H23 lung) was 5.39 µM, the TGI (NCI-H23 lung) was 65.9 µM and the GI50 (OVCAR-8 ovarian) was 3.76 µM. It also gave a TGI (OVCAR-8 ovarian) of 61.1 µM, a GI50 (IGROV1 ovarian) of 9.24 µM and a TGI (IGROV1 ovarian) of 76.4 µM. It also gave a GI50 (RXF 393 renal) of 8.01 µM and a TGI (RXF 393 renal) of 43.6 µM.
With `O=C(CC(=O)CC(O)(C(F)(F)F)C(F)(F)F)CC(O)(C(F)(F)F)C(F)(F)F` the TGI (SNB-75 CNS) was over 10 µM, the TGI (786-0 renal) was over 10 µM and the TGI (HCT-15 colon) was over 10 µM. For the same compound, the TGI (OVCAR-5 ovarian) was over 10 µM, the TGI (COLO 205 colon) was over 10 µM and the TGI (K-562 leukemia) was over 10 µM. The TGI (NCI-H23 lung) was over 10 µM, the TGI (OVCAR-8 ovarian) was over 10 µM and the TGI (IGROV1 ovarian) was over 10 µM. The TGI (RXF 393 renal) was over 10 µM.

— PubChem BioAssay (NCI)
